Source: patent US20080269346A1, “B-Blocker Pharmacogenetics in Heart Failure” (University of Florida Research Foundation, Inc., priority 2005, published 2008)

Assays:
[1] = test system: heart failure patients; details: concomitant drug in patients on metoprolol CR/XL; linear regression on final EF
Description: Patients were recruited for this prospective study from the University of Florida and University of North Carolina Heart Failure Clinics. All clinicians involved in clinical decision making were blinded to the genotypic data and all investigators determining the genotypes were blinded to the patient's clinical course. The study was approved by the Institutional Review Board at each institution, and each patient gave written informed consent for participation in the study. The procedures followed were in accordance with institutional guidelines. The study population included patients aged ≧18 years with symptoms of heart failure in NYHA functional class II-III, and with an EF≦40%. […] Patients were not eligible for enrollment if they were receiving β-blocker therapy.
After obtaining informed consent, a 5-mL blood sample for isolation of genomic DNA was collected. […] Left ventricular dimensions at the mid-cavity or chordal level were measured from digitized end diastolic and end systolic parasternal long axis images of the left ventricle.
Patients were divided by genotype and compared for continuous parameters (e.g., LVEF, LVEDD) at baseline as well as changes in these parameters. Comparisons were made by unpaired t-test, ANOVA, Kruskal Wallis test, or Wilcoxon rank sum as appropriate. […]

[2] = test system: heart failure patients; assay: Heart failure study: ejection fraction and heart rate response by ADRA2C Ins/Del and ADRB1 Arg389Gly genotype; format: in vivo, human; details: concomitant drug in patients on metoprolol CR/XL
Description: Inclusion criteria were age >18 years, NYHA functional class II-III, EF <40% and angiotensin-converting enzyme (ACE) inhibitor or angiotensin receptor blocker treatment on a stable dose for a minimum of four weeks. Patients receiving β-blocker therapy were not eligible.
At baseline, ejection fraction (EF), LV end-diastolic diameter (LVEDD) and LV endsystolic diameter (LVESD) were determined by a two-dimensional (2D) quantitative echocardiogram. Echocardiograms were analyzed by a single experienced echo-cardiologist. This individual had no knowledge of the clinical course or the genotyping results. […] The starting dose for patients in NYHA class II was 25 mg/day. […] Based on α of 0.05 and 80% power, at least 20 patients per genotype group (Ins/Ins or Del Carrier) were required to detect a difference of 6 EF units. […] Therefore, univariate linear regression models were used to predict end of study EF, LVEDD, or LVESD with the Ins/Del variable. […] The multivariate linear regressions included also variables that were significant in the univariate models. Three different step-type selection methods (backward elimination, forward elimination, and minimum R^2 improvement) were used to determine the best-fitting regression model from the maximum model. Model entry was set at P<0.1 and variables with P<0.05 stayed for the next step. […]

[3] = test system: patients with heart failure; details: Metra et al. 2000; cited from earlier work
[4] = S-metoprolol plasma concentrations in heart failure patients on metoprolol CR/XL; format: in vivo, human; details: final metoprolol CR/XL dose, about 2 to 4 hours after dosing
Description: After obtaining informed consent, a 5-mL blood sample for isolation of genomic DNA was collected. Baseline evaluations included a two-dimensional (2D) quantitative echocardiogram for determination of measures such as ejection fraction (EF}, left ventricular end-diastolic diameter (LVEDD), LV end-systolic diameter (LVESD), and completion of a 6-minute walk test. After completion of baseline studies, patients began metoprolol CR/XL. The starting dose of metoprolol CR/XL was 12.5 mg/day for patients in NYHA class III and 25 mg/day for patients in NYHA class II. The dose was doubled on a biweekly basis to 200 mg/day or maximum tolerated dose. Thus, the time for the up-titration period was 8-10 weeks depending on the starting dose of metoprolol CR/XL. Patients underwent a follow-up echocardiogram three months after the attainment of completion of up-titration or attainment of the maximum metoprolol CR/XL dose. Thus, at the time of the follow-up echocardiogram, patients had been receiving metoprolol CR/XL for approximately 5-5.5 months. In a subset of 42 patients who consented to additional blood draws, a pharmacokinetic blood sample was obtained approximately 2 to 4 hours following dosing after two weeks on each metoprolol CR/XL dose for determination of S-metoprolol (active isomer) concentrations.

[5] = test system: hypertensive men and women; assay: Hypertension study: 24-hour ambulatory blood pressure response to metoprolol by ADRA2C Ins/Del genotype
Description: In the hypertension study, 40 hypertensive men and women aged 35 to 65 years were studied. Hypertension was defined as untreated DBP between 95 mm Hg and 115 mm Hg (2 clinic visits, ≧5 minutes sitting). A certain range for systolic blood pressure (SBP) was not required for study entry. […] Medications for other indications were only allowed if it could not conceivably affect BP.
Patients took 50 mg metoprolol every 12 hours and BP was measured every week at the same time of the day to minimize the impact of diurnal BP variation. To achieve the goal DBP <90 mm Hg, the dose could be increased weekly to 100 mg and the maximum of 200 mg every 12 hours. Doses were not increased if the patient had intolerable side effects.
After the treatment phase, 24-hour ABP monitoring was repeated and blood samples for a pharmacokinetic analysis were taken.
Thus, univariate linear regression was used to model the DBP responses (24-hour, daytime) with the Ins/Del variable. […] This model would also include other, in the univariate model significant variables (P<0.1 for entry).

Structure (SMILES): NS(=O)(=O)c1cc(C(=O)O)c(NCc2ccco2)cc1Cl [Furosemide, furosemide]
- Parameter Estimate for use of the drug, multivariate analysis of change in Ejection Fraction [1]: 8.22 ejection fraction units

Structure (SMILES): CC(=O)S[C@@H]1CC2=CC(=O)CC[C@]2(C)[C@H]2CC[C@@]3(C)[C@@H](CC[C@@]34CCC(=O)O4)[C@H]12 [Spironolactone, spironolactone]
- Parameter estimate for use of the drug, multiple regression of treatment ejection fraction [2]: 4.37
- Parameter Estimate for use of the drug, multivariate analysis of change in Ejection Fraction [1]: 6.19 ejection fraction units

Structure (SMILES): COc1ccccc1OCCNCC(O)COc1cccc2[nH]c3ccccc3c12 (stereo not shown) [carvedilol]
- 95% confidence intervals for the change in LVEF [3]: −11.1 to +32.9

Structure (SMILES): COCCc1ccc(OCC(O)CNC(C)C)cc1.COCCc1ccc(OCC(O)CNC(C)C)cc1.O=C(O)CCC(=O)O (stereo not shown) [metoprolol CR/XL]
- S-metoprolol plasma concentrations, median (interquartile range) ([4]; Arg389 homozygotes): 31 ng/mL
- S-metoprolol plasma concentrations, median (interquartile range) ([4]; Gly 389 carriers): 19 ng/mL

Structure (SMILES): COCCc1ccc(OCC(O)CNC(C)C)cc1 (stereo not shown) [metoprolol]
- 95% confidence intervals for the change in LVEF [3]: −8.2 to +22.6
- 24-hour SBP change ([5]; Del carrier): −8.3±21.6
- daytime SBP change ([5]; Del carrier): −9.4±21.7
- nighttime SBP change ([5]; Del carrier): −4.7±22.2
- Nighttime DBP change ([5]; Del carriers): 3.7±9.7 mm Hg
- 24-hour SBP change ([5]; Ins/Ins): −8.8±16.4 mm Hg
- Nighttime DBP change ([5]; Ins/Ins): −8.0±8.8 mm Hg
- daytime SBP change ([5]; Ins/Ins): −9.5±16.6 mm Hg
- nighttime SBP change ([5]; Ins/Ins): −7.0±18.1 mm Hg
- adverse effects ([5]; all 40 hypertension patients): minor
